Among the data in the METLIN SMRT retention time set (Domingo-Almenara et al. 2019) are RP-LC retention time values, retold here.

The data set in a line: gradient 5% acetonitrile 3 min, to 50% in 2 min, to 85% in 15 min, held 3 min, 100 µL/min. The settings on record: column: Zorbax Extend-C18 2.1 x 50 mm; eluents: water / acetonitrile, 0.1% formic acid. In short, it runs like this: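 Standards, all pure, were combined into mixtures of ~100 molecules and run at 100 μL/min on a Zorbax Extend-C18 column (2.1 × 50 mm, 1.8 μm) with water and acetonitrile, each containing 0.1% formic acid. A coupled quadrupole time-of-flight mass spectrometer operated in positive and negative ionization mode. Retention time values come from computationally picked adduct peaks, each inspected manually.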
`Cc1nc(Cn2cccc2C(=O)Nc2cc(Cl)ccc2C)no1` showed an RP-LC retention time of 915 s.
For `O=C(C1=CN(c2ccc3c(c2)OCCO3)c2ccccc2S1(=O)=O)N1CCCCC1`, the RP-LC retention time was 830 s.
Under `O=c1ccc(-c2ccc(F)cc2)nn1Cc1nc(-c2cccc(Cl)c2)no1` stands 1090 s; under `O=C(CNC(=O)c1cccc(F)c1)Nc1nc2ccccc2[nH]1`, 613 s; under `Cc1ccc(C)c(NC(=O)c2c(O)c3cccnc3n(-c3ccc(F)cc3)c2=O)c1`, 1360 s.
Turning to `CCn1ccc(NC(=O)Nc2cc(C)ccc2C)n1`, the RP-LC retention time was found to be 869 s.
For `CN1C(=O)c2cc(C(=O)NCc3ccc(Cl)cc3)nn2CC1(C)C(=O)NCc1ccc(F)cc1` (stereo unspecified) the value was 805 s; for `CCNC(=O)N1CCCC(Cn2c(C3CC3)nc3cccnc32)C1` (stereo unspecified), 585 s; for `O=C(Cn1cnc2sc3c(c2c1=O)CCCC3)Nc1cccc(Cl)c1`, 984 s.
Under `O=C(NC1CCCC1)c1nc(Nc2ccc(F)cc2)c2ccccc2n1` stands 824 s; under `O=C(Nc1cnc(N2CCCCCC2)nc1)C1CCCC1`, 844 s.
`CC(Oc1ccc(=O)n(-c2ccc(F)cc2)n1)C(=O)Nc1ccc(F)c(F)c1` (stereo unspecified) yielded an RP-LC retention time of 816 s.
Under `O=C(NCCc1ccccc1)Nc1cnn(-c2ncc(N3CCCCC3)cn2)c1` stands 799 s; under `O=C(CCCS(=O)(=O)c1ccc(F)cc1)Nc1nc2c(s1)COc1ccccc1-2`, 872 s; under `O=C(NCc1ccccc1F)c1ccc2c(c1)CN(CC1=Cc3ccccc3OC1)CCO2`, 755 s.
For `O=C(/C=C/c1cccnc1)/C=C/c1cccnc1` the value was 635 s; for `O=C(Cn1nc(N2CCSCC2)c2ccccc2c1=O)Nc1cccc(Cl)c1`, 1010 s; for `CCc1noc([C@@H]2CC(F)(F)CN2C(=O)c2ocnc2C)n1`, 720 s.
Under `Cn1c(C2CCN(C(=O)Nc3cccc(Br)c3)CC2)cc(=O)n2nccc12` stands 714 s; under `CC1CC(=O)c2cnc(N3CCN(C)CC3)nc2C1` (stereo unspecified), 564 s; under `Cc1cc(S(=O)(=O)[C@H]2CS(=O)(=O)C[C@@H]2N2CCN(c3ccccc3F)CC2)ccc1F`, 1040 s.
`Cn1nc(CNC(=O)c2cccc(NC(=O)c3ccco3)c2)c2ccccc21` gave an RP-LC retention time of 736 s.
Under `O=C(NC1CCCCC1)C1CCc2ncc(-c3ccsc3)n2C1` (stereo unspecified) stands 584 s.
For `O=C(Nc1cccc(Cl)c1)C(=O)c1cn(CC(=O)N2CCCC2)c2ccccc12` the value was 1020 s; for `Cc1ccc(NC(=O)Cn2nc(-n3cccc3)c3c(C)cc(C)nc32)c(C)c1`, 1080 s.
For `CCCCN1CCN(C(=O)c2cn(-c3cc(N4CCC(C)CC4)ncn3)cn2)CC1` the value was 690 s; for `O=C(C1CCC1)N1CCCC1c1nc(C2CCOCC2)no1` (stereo unspecified), 624 s; for `O=C(CCc1ccccc1)NCC(=O)Nc1nc2ccccc2[nH]1`, 640 s.
Regarding `Cc1ccccc1S(=O)(=O)Nc1ccc(C(=O)N2CCCC2C(=O)NCCC(C)C)cc1` (stereo unspecified), the RP-LC retention time was determined as 807 s.
Take `Cc1ccc(-c2cc(C(=O)N3CCN(C4CCN(C)CC4)CC3)n(C)c2)cc1`: the RP-LC retention time worked out at 590 s.
For `CCOC(=O)C1=C(CN2CCN(c3ccccn3)CC2)NC(=O)NC1c1ccc(OC)cc1` (stereo unspecified) the value was 612 s.
Under `COc1ccc(-c2noc(Cn3ccn(-c4cccc(Cl)c4)c(=O)c3=O)n2)cc1` stands 866 s.
Under `CNc1nccc(N2CCC(CC(=O)O)CC2)n1` stands 576 s; under `Fc1ccc(CN2CCc3nc(N4CCOCC4)ncc3C2)cc1`, 608 s.
As to `Cc1cnc(CC2CCN(C(=O)C(C)C)C2)n1C(C)C` (stereo unspecified), the RP-LC retention time was found to be 578 s.
Under `CCc1ccccc1NC(=O)CSc1nnc2ccc(C(=O)Nc3cccc(F)c3)cn12` stands 776 s.
Regarding `O=C1CN(c2ccccc2NC(=O)c2ccc[nH]c2=O)CCN1`, the RP-LC retention time is 588 s.
Under `CCn1ccc2cc(S(=O)(=O)N3CCC(C(=O)NCc4cccnc4)CC3)ccc21` stands 653 s; under `O=C(Nc1cccc(F)c1)Nc1cccc(-c2ccc(N3CCOCC3)nn2)c1`, 697 s; under `CCC(CC)C(=O)N1CCN(c2nc3cccnc3n(CC)c2=O)CC1`, 942 s.
Compound `COc1ccc(C2Nc3ccc(C)cc3[C@H]3OCCC[C@@H]23)cc1O` (stereo partly specified) had an RP-LC retention time of 894 s.
On to `CCCCN1CN=C(Nc2nc(C)c3ccccc3n2)NC1`, for which the RP-LC retention time came to 680 s.
On to `Cc1nn(-c2ccccc2)c2c1C(c1ccc([N+](=O)[O-])cc1)C(C#N)=C(N)O2` (stereo unspecified), for which the RP-LC retention time worked out at 760 s.
For `CCOc1ccc(C(=O)NCCCN2CCN(c3ccccc3)CC2)cc1` the value was 586 s; for `O=C(NCC1CCCO1)c1csc(N2CCN(c3ccc(F)cc3)CC2)n1` (stereo unspecified), 902 s.
For `CCOC(=O)c1nc(N(Cc2ccccc2)C(C)C)c2ccccc2n1` the value was 1000 s; for `COc1ccc(CCC(=O)NCc2cccnc2OC)cc1`, 749 s; for `CC(C)c1csc(-c2csc(S(=O)(=O)NCc3ccc(F)cc3)c2)n1`, 1120 s.
In turn, `CN1CCN(C(CNC(=O)c2ccc3c(c2)OCO3)c2ccc3c(c2)OCO3)CC1` (stereo unspecified) had an RP-LC retention time of 614 s.
Under `O=C([C@@H]1C[C@H](Oc2ccccc2)CN1C(=O)C1CC=CC1)N1CCCC1` stands 759 s; under `COCc1nc2nccc(-c3ccccc3)n2n1`, 672 s; under `CCOc1ccc(NC(=O)c2cccc3ccccc23)c([N+](=O)[O-])c1`, 1050 s.
The compound `CCCc1nc(-c2c(C)cc(C)nc2NC(=O)c2ccccc2F)no1` registered an RP-LC retention time of 883 s.
In turn, `Cc1ccc(-c2cn3c(CC(=O)Nc4ccc(F)cc4Cl)csc3n2)cc1C` gave an RP-LC retention time of 911 s.
For `Cc1ccc(C)c(NC(=O)c2cc(C(C)C)n3nccc3n2)c1` the value was 1240 s; for `Clc1cccc(Cc2nc(-c3ccc4nncn4c3)no2)c1`, 827 s; for `COCCNc1c(-c2ccc(F)cc2)nc2sc(C(=O)NCc3ccccn3)c(C)n12`, 661 s.
Under `CCc1ccc(NC(=O)NCc2ccnc(N3CCSCC3)c2)cc1` stands 668 s.
For `CCOc1ccc(-n2nnnc2CNS(=O)(=O)c2ccc(CC)s2)cc1` the value was 949 s; for `COc1ccc(OCC(=O)N2CCCC2c2nc(-c3ccc(OC)cc3)no2)cc1` (stereo unspecified), 934 s.
The compound `O=C(CN1C(=O)COc2ccc(C(=O)N3CCCC3)cc21)N1CCN(c2ccccc2)CC1` displayed an RP-LC retention time of 718 s.
In turn, `Cc1ccccc1Nc1c(-c2ccc(N(C)C)cc2)nc2cccc(C)n12` yielded an RP-LC retention time of 811 s.
`Cc1nn(C(C)C(=O)N2CCCCCC2)c(=O)c2c(-n3cccc3)n(-c3ccccc3)nc12` (stereo unspecified) showed an RP-LC retention time of 1040 s.
For `CC(C)(C)C(=O)N1CC(c2nc(-c3ccc(F)cc3)no2)C2(CCOCC2)C1` (stereo unspecified) the value was 964 s; for `CCc1nnc(NC(=O)CSc2nccn2Cc2ccc3c(c2)OCO3)s1`, 586 s; for `Cc1ccc(C)c(C(=O)N2CCN(c3cc(-c4cccs4)[nH]n3)CC2)c1`, 847 s.
Compound `COc1ccc(CNC(=O)CCc2conc2-c2ccc(F)cc2)cc1` had an RP-LC retention time of 860 s.
`CC(=O)Oc1cc2c(C(=O)NCc3ccccn3)c(C)oc2c2ccccc12` yielded an RP-LC retention time of 638 s.
Under `CC(C)n1c(CCNC(=O)c2cc(F)cc(F)c2)nc2cccnc21` stands 694 s; under `COc1ccc(CCS(=O)(=O)NCC2(c3ccc(F)cc3)CC2)cc1`, 950 s; under `Cc1ccc(F)cc1S(=O)(=O)N1CC(F)(F)C[C@H]1CN1CCc2ccccc2C1`, 795 s.
With `CCCc1noc(CN2N=C(C(=O)N3CCC(C)CC3)S(=O)(=O)c3ccc(C)cc32)n1`, the RP-LC retention time stood at 1010 s.
With `CCCc1cc(C2CCCN2C(=O)Nc2ccccc2OC)no1` (stereo unspecified), the RP-LC retention time worked out at 901 s.
For `CCCNC(=O)C1CCCN(c2nc3ccsc3c(=O)n2-c2ccc(C)cc2)C1` (stereo unspecified) the value was 1250 s; for `COc1cccc(CNC(=O)N2CCN(Cc3c(C)noc3C)CC2)c1`, 593 s.
For the compound `Cc1csc(-c2cc(S(=O)(=O)N3CCC(C)CC3)cn2CC(=O)N2CCCCC2)n1`, the RP-LC retention time came out at 1130 s.
Under `CCN(CC)c1nc2cc(C(=O)OC)ccc2c(=O)n1-c1cccc(OC)c1` stands 1110 s.
For `COC(=O)C1=C(NC(=O)c2cccc(F)c2)CCS1` the value was 964 s.
Turning to `CCc1ccc(-c2nc(-c3ccc(-n4cccn4)nc3)no2)cc1`, the RP-LC retention time is 1470 s.
On to `CCOC(=O)Cn1c(C2CC(=O)N(c3ccc(OC)cc3)C2)nc2ccccc21` (stereo unspecified), for which the RP-LC retention time stood at 762 s.
The compound `CC1Cc2ccccc2N1C(=O)CCC(=O)N1CCCN(c2cc(=O)n(C)c(=O)n2C)CC1` (stereo unspecified) yielded an RP-LC retention time of 677 s.
